Reference: article PMC8187479, “Sugar phosphate activation of the stress sensor eIF2B” (Nature Communications, 2021)
Peptide text beside a SMILES is read from it.

These molecules were tested against T1, eIF2Bα (Homo sapiens, UniProt Q14232) (assay: MIDAS (mass spectrometry integrated with equilibrium dialysis) metabolite binding screen). Conditions: MIDAS metabolite binding screen with eIF2Bα; sheet "eIF2Ba".
T1 construct: made in house; host or cells: E. coli BL21(DE3)
T1 sequence (Q14232 1-305): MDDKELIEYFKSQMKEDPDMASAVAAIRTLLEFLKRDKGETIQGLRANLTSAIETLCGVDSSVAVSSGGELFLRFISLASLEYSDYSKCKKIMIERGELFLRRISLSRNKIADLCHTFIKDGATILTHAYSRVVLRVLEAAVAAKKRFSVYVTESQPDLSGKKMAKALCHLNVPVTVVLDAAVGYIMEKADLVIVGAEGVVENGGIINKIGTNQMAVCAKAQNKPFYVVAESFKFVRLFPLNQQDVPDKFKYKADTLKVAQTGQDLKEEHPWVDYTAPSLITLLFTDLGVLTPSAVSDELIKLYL
Method in brief: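 Hits called at Storey q < 0.1 on z-scores of PCA-corrected log2 fold change between protein and metabolite chambers, quantified by FIA-MS in triplicate.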

Row | log2(corrected fold change) | Structure (SMILES)
1 | 0.1173 | CC(=O)N[C@@H](CC(=O)O)C(=O)N[C@@H](CCC(=O)O)C(=O)O [N-Acetyl-Asp-Glu] (Ac-Asp-Glu-OH)
2 | -0.08166 | CC(=O)N[C@H]1C(OP(=O)(O)O)O[C@H](CO)[C@@H](O)[C@@H]1O (stereo partly drawn) [N-Acetyl-D-glucosamine 1-phosphate]
3 | -0.009906 | CC(=O)N[C@H]1C(O)O[C@H](COP(=O)(O)O)[C@@H](O)[C@@H]1O (stereo partly drawn) [N-Acetyl-D-glucosamine 6-phosphate]
4 | 0.03658 | CC(=O)N[C@@H]1C(O)O[C@H](CO)[C@@H](O)[C@@H]1O (stereo partly drawn) [N-Acetyl-D-mannosamine]
5 | 0.003577 | CC(=O)N[C@@H](CC(=O)O)C(=O)O [N-Acetyl-L-aspartate]
6 | 0.006675 | CC(=O)N[C@@H](CCC(=O)O)C(=O)O [N-Acetyl-L-glutamic acid]
7 | 0.002532 | CC(=O)N[C@H]1C(O)O[C@H](CO)[C@@H](O)[C@@H]1O[C@H](C)C(=O)O (stereo partly drawn) [N-Acetylmuramic acid]
8 | -0.0313 | CC(=O)N[C@H]1[C@H]([C@H](O)[C@H](O)CO)OC(O)(C(=O)O)C[C@@H]1O (stereo partly drawn) [N-Acetylneuraminic acid]

Second part, the molecule before the results:

Row | Structure (SMILES) | log2(corrected fold change)
9 | N[C@@H](CCCCN[C@@H](CCC(=O)O)C(=O)O)C(=O)O [L-Saccharopine] | -0.0272
10 | N[C@@H](CO)C(=O)O [L-Serine] | -0.04824
11 | C[C@@H](O)[C@H](N)C(=O)O [L-Threonine] | -0.05619
12 | C[N+](C)(C)CCOP(=O)([O-])OC[C@H](O)CO [L-alpha-Glycerophosphorylcholine] | 0.1951
13 | CC(C)(CO[P@@](=O)(O)O[P@@](=O)(O)OC[C@H]1O[C@@H](n2cnc3c(N)ncnc32)[C@H](O)[C@@H]1OP(=O)(O)O)[C@@H](O)C(=O)NCCC(=O)NCCSC(=O)CC(=O)O [Malonyl coenzyme A] | -0.02331
14 | OC[C@H]1O[C@H](OCC2O[C@@H](O)[C@H](O)[C@@H](O)[C@@H]2O)[C@H](O)[C@@H](O)[C@H]1O (stereo partly drawn) [Melibiose] | -0.003615
15 | CC(C(=O)O)C(=O)O [Methylmalonic acid] | -0.05121
16 | CN(C)CC(=O)O [N,N-Dimethylglycine] | 0.0213

Same assay, conditions: MIDAS screen, sheet eIF2Ba; metabolites screened in pools 1-4; p-value and q-value given

Row | log2(corrected fold change) | Structure (SMILES)
17 | -0.1649 | O=C(O)CNC(=O)c1ccco1 [N-2-Furoylglycine]
18 | 0.3673 | CC(=O)N[C@H]1C(O)O[C@H](CO)[C@H](O)[C@@H]1O (stereo partly drawn) [N-Acetyl-D-galactosamine]
19 | 0.3673 | CC(=O)N[C@@H]1[C@@H](O)[C@H](O)[C@@H](CO)O[C@@H]1O [N-Acetyl-D-glucosamine]
20 | -0.2203 | CC(=O)NCCCCN [N-Acetylputrescine]

Second part, the molecule before the results:

Row | Structure (SMILES) | log2(corrected fold change)
21 | O=C(O)[C@@H]1CCC(O)=N1 [L-Pyroglutamic acid] | -0.09309
22 | O=C(CO)[C@@H](O)[C@@H](O)CO [L-Ribulose] | -0.1354
23 | N[C@@H](Cc1c[nH]c2ccccc12)C(=O)O [L-Tryptophan] | 0.08785
24 | CC(C)[C@H](N)C(=O)O [L-Valine] | -0.07845
25 | N[C@@H](CC(=O)O)C(=O)N[C@@H](Cc1ccccc1)C(=O)O [L-a-Aspartyl-L-phenylalanine] (H-Asp-Phe-OH) | -0.1203
26 | O=P(O)(O)OC1O[C@H](CO)[C@@H](O)[C@H](O)[C@@H]1O (stereo partly drawn) [Mannose 1-phosphate] | -0.1344
27 | CNCC(O)c1ccc(O)c(OC)c1 (stereo not drawn) [Metanephrine] | -0.1853
28 | CC(=O)N[C@H]1[C@H](O[C@H]2[C@H](O)[C@@H](NC(C)=O)C(O)O[C@@H]2CO)O[C@H](CO)[C@@H](O)[C@@H]1O (stereo partly drawn) [N,N-Diacetylchitobiose] | 0.08913
29 | CC(=O)NCCc1c[nH]c2ccc(O)cc12 [N-Acetyl-5-hydroxytryptamine] | 0.03423
30 | CC(=O)N[C@@H](C)C(=O)O [N-Acetyl-L-alanine] | 0.07527
